Data reported in patent US11278521B2, “GAS5 binding compounds, formulations, and uses thereof” (UNIVERSITY OF SOUTH FLORIDA, priority 2015, dated 2022).
Entries after “also recorded” stand apart in the source; their conditions may differ.

Experiments:
GAS5 [1] = assay: GAS5 levels in DM adipocytes by SYBR Green qPCR; type: cell-based; conditions: 20 nM, about 24 hours
Description: Strategy for compound design: GAS5 transcript may be targeted to faster turnover by nonsense mediated RNA decay. GAS5 transcript has a premature termination codon which renders greater susceptibility for nonsense mediated RNA decay. […] GAS5 and UPF1 levels were measured in NDM and DM adipocytes.
DM adipocytes were treated with G5-1397 (20 nM) for about 24 hours. GAS5 levels were measured using SYBR Green qPCR.

DM adipocytes = assay: cell viability assay after treatment with compound; type: cell-based; conditions: DM adipocytes treated with compound, cell viability assay (FIG. 3B)
GAS5 transcript = assay: RNA-EMSA (REMSA) with biotin-labeled in vitro transcribed GAS5; type: binding; conditions: 0.1 nM biotin-labeled GAS5, 10 nM compound, 10U yeast tRNA, 20 min at room temperature
Description: RNA-EMSA was performed as previously described (see e.g. Apostolatos, H., Apostolatos, A., Vickers, T., Watson, J. E., Song, S., Vale, F., Cooper, D. R., Sanchez-Ramos, J., and Patel, N. A. (2010) Vitamin A metabolite, all-trans-retinoic acid, mediates alternative splicing of protein kinase C deltaVIII (PKCdeltaVIII) isoform via splicing factor SC35. J Biol Chem 285, 25987-25995 and Patel, R. S., Carter, G., Cooper, D. R., Apostolatos, H., and Patel, N. A. (2014) Transformer 2beta homolog (Drosophila) (TRA2B) regulates protein kinase C deltal (PKCdeltal) splice variant expression during 3T3L1 preadipocyte cell cycle. J Biol Chem 289, 31662-31672.
Briefly, GAS5 was cloned in TOPO vector which has the T7 promoter. In vitro transcription assay was performed with biotin-label using RiboScribe kit using T7 RNA polymerase at 37° C. for 2 h in the presence of nucleotides, RNase inhibitor, and 5× transcription buffer. 0.1 nM of transcribed, biotin-labeled GAS5 was incubated with 10 nM G5-1397 in presence of 10U yeast tRNA and 10 units of RNase inhibitor in a final volume of 10 μl of RNA shift buffer for 20 min at room temperature and detected using Biotin Chromogenic Detection kit (ThermoFisher). […] Using the same assay, compounds according to Formulas 4-19 were also observed to bind GAS5 long non-coding RNA.

GAS5 [2] = assay: screen of γ-AApeptide one-bead-one-compound combinatorial library with fluorescein tagged GAS5 oligonucleotide probe and validation; type: binding; conditions: positive beads from screen of 160,000 molecules, tRNA as control
From the text: The interaction between UPF1 and GAS5 was disrupted using a γ-AApeptide based one-bead-one-compound (OBOC) combinatorial library (Wu H, Li Y, Bai G, Niu Y, Qiao Q, Tipton J D, Cao C, Cai J. gamma-AApeptide-based small-molecule ligands that inhibit Abeta aggregation. Chemical communications. 2014; 50(40):5206-8. doi: 10.1039/c3cc46685j. PubMed PMID: 24158240). The γ-AApeptide is a peptidomimetic with side chains for chemical diversity and are resistant to proteolytic cleavage. To screen the compound library, a probe that contained a fluorescein tagged oligonucleotide was synthesized. The probe spanned 30 nucleotides on either side of the UAA sequences on GAS5 (FIG. 2) The fluorescein was attached to the 5′end (beginning of oligonucleotide probe sequence). The nucleotide sequence within the GAS5 IncRNA that the oligonucleotide probe binds to can be about 100% identical to […] […]
The length of oligonucleotide was required to maintain stem loop structure to specifically bind to GAS5. […] The compound having a structure according to Formula 3 was determined to have a chemical formula of C68H92N10O9S, a mass of about 1224.6769, and a molecular weight of 1225.6050. The compound having a structure according to Formula 14 was determined to have a chemical formula of C63H85N9O13S, a mass of about 1207.5988, and a molecular weight of 1208.4830.

| Compound | GAS5 levels (GAS5 [1]) | cell toxicity (DM adipocytes) | binding to GAS5 transcript (GAS5 transcript) | ability to bind GAS5 (GAS5 [2]) |
| --- | --- | --- | --- | --- |
| CC(C)C[C@H]1CN(C(=O)CC2CC2)CC(=O)N[C@@H](CCCCN)CN(C(=O)CCc2ccccc2)CC(=O)N[C@@H](Cc2ccccc2)CN(CC(N)=O)C(=O)CCSCc2ccc(cc2)C(=O)N[C@@H](Cc2ccccc2)CN(C(=O)CC2CC2)CC(=O)N1 [Formula G5-1397] | substantially increases GAS5 levels | without causing cell toxicity | bound to GAS5 transcript; also recorded: GAS5 transcript binding | able to bind GAS5 |
| C[C@H]1CN(C(=O)CC2CC2)CC(=O)N[C@@H](CCC(=O)O)CN(C(=O)CCC2CCCCC2)CC(=O)N[C@@H](Cc2ccccc2)CN(CC(N)=O)C(=O)CCSCc2ccc(cc2)C(=O)N[C@@H](Cc2ccccc2)CN(C(=O)CCC(=O)O)CC(=O)N1 [Formula 14] | – | – | – | able to bind GAS5 |
